Reference: patent US8153593B2, “Transglutaminase inhibitors and methods of use thereof” (The Board of Trustees of the Leland Stanford Junior …, priority 2003, dated 2012)

The molecules below were run against T1, recombinant human tissue transglutaminase (Homo sapiens, UniProt P21980) (assay: tTGase inhibition assay, residual activity by glutamate dehydrogenase coupled assay). Settings: Table 3.
T1 construct: made in house
T1 sequence (P21980 1-687): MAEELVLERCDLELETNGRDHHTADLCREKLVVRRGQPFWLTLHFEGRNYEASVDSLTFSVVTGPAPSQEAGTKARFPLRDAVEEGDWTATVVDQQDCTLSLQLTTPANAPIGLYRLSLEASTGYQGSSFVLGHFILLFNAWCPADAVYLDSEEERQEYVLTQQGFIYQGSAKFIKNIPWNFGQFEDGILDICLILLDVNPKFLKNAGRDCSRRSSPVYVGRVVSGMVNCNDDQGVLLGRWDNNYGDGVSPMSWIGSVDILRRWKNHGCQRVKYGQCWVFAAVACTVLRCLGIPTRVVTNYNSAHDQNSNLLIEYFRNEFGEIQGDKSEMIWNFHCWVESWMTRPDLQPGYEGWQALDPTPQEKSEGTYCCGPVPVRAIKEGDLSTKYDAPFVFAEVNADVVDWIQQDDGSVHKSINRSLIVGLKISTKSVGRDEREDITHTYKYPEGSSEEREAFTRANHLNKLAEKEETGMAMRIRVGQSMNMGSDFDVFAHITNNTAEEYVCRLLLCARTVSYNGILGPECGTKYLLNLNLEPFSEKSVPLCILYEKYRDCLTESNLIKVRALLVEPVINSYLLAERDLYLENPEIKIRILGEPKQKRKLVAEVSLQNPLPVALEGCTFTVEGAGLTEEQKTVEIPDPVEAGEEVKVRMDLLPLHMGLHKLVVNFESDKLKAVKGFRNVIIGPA
Type: biochemical

SMILES | Ki [µM] | kinh [min⁻¹] | kinh/KI
O=C(NCC1CC(Br)=NO1)[C@@H]1CCCN1C(=O)OCc1cnc2ccccc2c1 (stereo in doubt) [ERW1041E, 2-[(3-Bromo-4,5-dihydro-isoxazol-5-ylmethyl)-carbamoyl]-pyrrolidine-1-carboxylic acid quinolin-3-ylmethyl ester] | 953 | 2.856 | 3000 /Mmin
O=C(NC(Cc1c[nH]c2ccc(F)cc12)C(=O)NCC1CC(Br)=NO1)OCc1ccccc1 (stereo not drawn) [ERW903, [1-[(3-Bromo-4,5-dihydro-isoxazol-5-ylmethyl)-carbamoyl]-2-(5-fluoro-1H-indol-3-yl)-ethyl]-carbamic acid benzyl ester] | – | – | <1200 >1200 <1200 <1200 /Mmin
O=C(NC(Cc1ccc(O)cc1)C(=O)NCC1CC(Br)=NO1)OCc1cnc2ccccc2c1 (stereo not drawn) [ERW1041A, [1-[(3-Bromo-4,5-dihydro-isoxazol-5-ylmethyl)-carbamoyl]-2-(4-hydroxy-phenyl)-ethyl]-carbamic acid quinolin-3-ylmethyl ester] | 63.1 | 0.184 | 2900 /Mmin
O=C(NC(Cc1c[nH]c2ccc(O)cc12)C(=O)NCC1CC(Br)=NO1)OCc1cnc2ccccc2c1 (stereo not drawn) [ERW1041B, [1-[(3-Bromo-4,5-dihydro-isoxazol-5-ylmethyl)-carbamoyl]-2-(5-hydroxy-1H-indol-3-yl)-ethyl]-carbamic acid quinolin-3-ylmethyl ester] | 1380 | 2.57 | 1850 /Mmin
COc1ccc2[nH]cc(CC(NC(=O)OCc3cnc4ccccc4c3)C(=O)NCC3CC(Br)=NO3)c2c1 (stereo not drawn) [ERW1041D, [1-[(3-Bromo-4,5-dihydro-isoxazol-5-ylmethyl)-carbamoyl]-2-(5-methoxy-1H-indol-3-yl)-ethyl]-carbamic acid quinolin-3-ylmethyl ester] | 173 | 0.283 | 1600 /Mmin
O=C(NCC1CC(Br)=NO1)C1Cc2ccccc2N1C(=O)OCc1ccccc1 (stereo not drawn) [ERW1045, 2-[(3-Bromo-4,5-dihydro-isoxazol-5-ylmethyl)-carbamoyl]-2,3-dihydro-indole-1-carboxylic acid benzyl ester] | – | – | <1200 /Mmin
O=C(NC(Cc1c[nH]c2ccc(F)cc12)C(=O)NCC1CC(Br)=NO1)OCc1cnc2ccccc2c1 (stereo not drawn) [ERW1069, [1-[(3-Bromo-4,5-dihydro-isoxazol-5-ylmethyl)-carbamoyl]-2-(5-fluoro-1H-indol-3-yl)-ethyl]-carbamic acid quinolin-3-ylmethyl ester] | 4.9 | 0.1314 | 26800 /Mmin

Same assay, conditions: dihydroisoxazoles, Table 1

SMILES | Ki [µM] | kinh [min⁻¹] | kinh/Ki [min^−1M^−1]
COC(=O)[C@H](CCC(=O)NCC1CC(Br)=NO1)NC(=O)OCc1ccccc1 (stereo partly drawn) [Compound 50, (S)-2-Benzyloxycarbonylamino-4-[(3-bromo-4,5-dihydro-isoxazol-5-ylmethyl)-carbamoyl]-butyric acid methyl ester] | 1600 | 0.32 | 200
COC(=O)[C@H](CC(=O)NCC1CC(Br)=NO1)NC(=O)OCc1ccccc1 (stereo partly drawn) [Compound 51, (S)-2-Benzyloxycarbonylamino-N-(3-bromo-4,5-dihydro-isoxazol-5-ylmethyl)-succinamic acid methyl ester] | 870 | 0.43 | 490
O=C(N[C@@H](Cc1ccccc1)C(=O)OCC1CC(Br)=NO1)OCc1ccccc1 (stereo partly drawn) [Compound 52, (S)-2-Benzyloxycarbonylamino-3-phenyl-propionic acid 3-bromo-4,5-dihydro-isoxazol-5-ylmethyl ester] | 1300 | 0.32 | 230
C[C@H](NC(=O)OCc1ccccc1)C(=O)NCC1CC(Br)=NO1 (stereo partly drawn) [Compound 53, {(S)-1-[(3-Bromo-4,5-dihydro-isoxazol-5-ylmethyl)-carbamoyl]-ethyl}-carbamic acid benzyl ester] | 910 | 0.41 | 450
CC(=O)N[C@@H](Cc1ccccc1)C(=O)NCC1CC(Br)=NO1 (stereo partly drawn) [Compound 54, (S)-2-Acetylamino-N-(3-bromo-4,5-dihydro-isoxazol-5-ylmethyl)-3-phenyl-propionamide] | 2700 | 0.60 | 220
O=C(N[C@H](Cc1ccccc1)C(=O)NCC1CC(Br)=NO1)OCc1ccccc1 (stereo partly drawn) [Compound 55, {(R)-1-[(3-Bromo-4,5-dihydro-isoxazol-5-ylmethyl)-carbamoyl]-2-phenyl-ethyl}-carbamic acid benzyl ester] | – | 0.29 | –
O=C(C[C@H](NC(=O)OCc1ccccc1)C(=O)NCC1CC(Br)=NO1)NCc1ccccc1 (stereo partly drawn) [Compound 56, {(S)-2-Benzylcarbamoyl-1-[(3-bromo-4,5-dihydro-isoxazol-5-ylmethyl)-carbamoyl]-ethyl}-carbamic acid benzyl ester] | 240 | 0.54 | 2300
O=C(N[C@@H](Cc1c[nH]c2ccccc12)C(=O)NCC1CC(Br)=NO1)OCc1ccccc1 (stereo partly drawn) [Compound 57, [(S)-1-[(3-Bromo-4,5-dihydro-isoxazol-5-ylmethyl)-carbamoyl]-2-(1H-indol-3-yl)-ethyl]-carbamic acid benzyl ester] | – | 0.78 | 2500
CN(CC1CC(Br)=NO1)C(=O)[C@H](Cc1ccccc1)NC(=O)OCc1ccccc1 (stereo partly drawn) [Compound 58, {(S)-1-[(3-Bromo-4,5-dihydro-isoxazol-5-ylmethyl)-methyl-carbamoyl]-2-phenyl-ethyl}-carbamic acid benzyl ester] | 260 | 0.19 | 730
O=C(NCC1CC(Br)=NO1)Nc1ccccc1 (stereo not drawn) [Compound 60, 1-(3-Bromo-4,5-dihydro-isoxazol-5-ylmethyl)-3-phenyl-urea] | – | 0.89 | 810
O=C(NCC1CC(Br)=NO1)Nc1cc(C(F)(F)F)ccc1Cl (stereo not drawn) [Compound 61, 1-(3-Bromo-4,5-dihydro-isoxazol-5-ylmethyl)-3-(2-chloro-5-trifluoromethyl-phenyl)-urea] | – | 0.95 | 1000
O=C(NCC1CC(Br)=NO1)Nc1ccc(Cl)cc1C(F)(F)F (stereo not drawn) [Compound 62, 1-(3-Bromo-4,5-dihydro-isoxazol-5-ylmethyl)-3-(4-chloro-2-trifluoromethyl-phenyl)-urea] | – | 1.1 | 850
O=C(NCC1CC(Br)=NO1)Nc1ccc(F)cc1 (stereo not drawn) [Compound 63, 1-(3-Bromo-4,5-dihydro-isoxazol-5-ylmethyl)-3-(4-fluoro-phenyl)-urea] | – | 1.0 | 770
Cc1ccc(C)c(NC(=O)NCC2CC(Br)=NO2)c1 (stereo not drawn) [Compound 64, 1-(3-Bromo-4,5-dihydro-isoxazol-5-ylmethyl)-3-(2,5-dimethyl-phenyl)-urea] | – | 0.97 | 1000
